In patent US12281122B1, “PI3K inhibitors” (Cogent Biosciences, Inc., priority 2023, dated 2025):
pIC50: −log10 of the molar value.

Columns and labels:
[1] = tested on: T47D (PI3Kα-H1047R) cell line; experiment: HTRF phospho-AKT(S473) cell assay in T47D cells; type: cell-based, human
Procedure, shortened: (§1)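 T47D (PI3Kα-H1047R; RPMI, 10% FBS, insulin) and SKBR3 (wild-type PI3Kα; McCoy's 5A, 10% FBS) cells treated 2 h at 37 °C with 12-point 1:3 dilutions, top 5 μM and 10 μM respectively, ≤0.5% DMSO. SKBR3 stimulated with 70 ng/ml PDGF-BB for the last 15 min; lysate pAKT(S473) by HTRF, IC50 from curves.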

[2] = tested on: SKBR3 (PI3Kα-Wild Type) cell line; experiment: HTRF phospho-AKT(S473) cell assay in SKBR3 cells; type: cell-based, human
Procedure, shortened: as §1

[3] = Homo sapiens; T47D (PI3Kα-H1047R) cells, HTRF phospho-AKT(S473), 2 hours compound incubation
[4] = Homo sapiens, SK-BR-3; SKBR3 (PI3Kα-Wild Type) cells, HTRF phospho-AKT(S473), 2 hours compound incubation, PDGF-BB stimulated
[5] = Homo sapiens; HTRF phospho-AKT(S473), T47D (PI3Kα-H1047R) cells, 2 hours compound incubation
[6] = Homo sapiens, SK-BR-3; HTRF phospho-AKT(S473), SKBR3 (PI3Kα-Wild Type) cells, 2 hours compound incubation, PDGF-BB stimulated

Row | Compound | pIC50 [1, 3] | pIC50 [2, 4] | pIC50 [1, 5] | pIC50 [2, 6]
1 | Cc1cc([C@@H](C)Nc2ccc(Cl)nc2C(=O)NS(C)(=O)=O)c2nc(N3CCC4(CCN(c5ccn(C)n5)C4)CC3)n(C)c(=O)c2c1 [Compound 359, (R)-6-chloro-3-((1-(3,6-dimethyl-2-(2-(1-methyl-1H-pyrazol-3-yl)-2,8-diazaspiro[4.5]decan-8-yl)-4-oxo-3,4-dihydroquinazolin-8-yl)ethyl)amino)-N-(methylsulfonyl) picolinamide] | 6.30 to 6.60 | ≤ 5.30 | – | –
2 | Cc1cc([C@@H](C)Nc2ccc(Cl)nc2C(=O)NS(C)(=O)=O)c2nc(N3C[C@H]4C[C@@H]3C[C@H]4c3ccn(C)n3)n(C)c(=O)c2c1 (relative stereo) [Compound 355, 6-chloro-3-(((R)-1-(3,6-dimethyl-2-((1R*,4S*,5R*)-5-(1-methyl-1H-pyrazol-3-yl)-2-azabicyclo[2.2.1]heptan-2-yl)-4-oxo-3,4-dihydroquinazolin-8-yl)ethyl)amino)-N-(methylsulfonyl) picolinamide] | > 6.60 | 5.30 to 6.00 | – | –
3 | [2H]C([2H])([2H])n1nccc1[C@H]1[C@@H]2CN(c3nc4c([C@@H](C)Nc5ccc(Cl)nc5C(=O)NS(C)(=O)=O)cc(C)cc4c(=O)n3C)C[C@@H]21 [Compound 494, 6-chloro-3-(((R)-1-(3,6-dimethyl-2-((1R,5S,6R)-6-(1-(methyl-d3)-1H-pyrazol-5-yl)-3-azabicyclo[3.1.0]hexan-3-yl)-4-oxo-3,4-dihydroquinazolin-8-yl)ethyl)amino)-N-(methylsulfonyl) picolinamide] | – | – | > 6.60 | 5.30 to 6.00
4 | Cc1cc([C@@H](C)Nc2ccc(Cl)nc2C(=O)NS(C)(=O)=O)c2nc(N3C[C@@H]4[C@H](C3)[C@H]4c3cc(C)nn3C3CC3)n(C)c(=O)c2c1 [Compound 568, 6-chloro-3-(((R)-1-(2-((1R,5S,6R)-6-(1-cyclopropyl-3-methyl-1H-pyrazol-5-yl)-3-azabicyclo[3.1.0]hexan-3-yl)-3,6-dimethyl-4-oxo-3,4-dihydroquinazolin-8-yl)ethyl)amino)-N-(methylsulfonyl) picolinamide] | – | – | 6.30 to 6.60 | 5.30 to 6.00
5 | Cc1cc([C@@H](C)Nc2ccc(Cl)nc2C(=O)NS(C)(=O)=O)c2nc(N3Cc4cn(-c5ccccc5)nc4C3)n(C)c(=O)c2c1 [Compound 147, (R)-6-chloro-3-((1-(3,6-dimethyl-4-oxo-2-(2-phenyl-2,6-dihydropyrrolo[3,4-c]pyrazol-5(4H)-yl)-3,4-dihydroquinazolin-8-yl)ethyl)amino)-N-(methylsulfonyl) picolinamide] | 6.30 to 6.60 | ≤ 5.30 | – | –

The remaining lines, values ahead:

Row | pIC50 [1, 3] | pIC50 [2, 4] | pIC50 [1, 5] | pIC50 [2, 6] | Compound
6 | > 6.60 | 5.30 to 6.00 | – | – | Cc1cc([C@@H](C)Nc2ccc(Cl)nc2C(=O)NS(C)(=O)=O)c2nc(N3CCN(c4ccc(C#N)cn4)[C@@H](C)C3)n(C)c(=O)c2c1 [Compound 196, 6-chloro-3-(((R)-1-(2-((S)-4-(5-cyanopyridin-2-yl)-3-methylpiperazin-1-yl)-3,6-dimethyl-4-oxo-3,4-dihydroquinazolin-8-yl)ethyl)amino)-N-(methylsulfonyl) picolinamide]
7 | – | – | 6.00 to 6.30 | ≤ 5.30 | Cc1cc([C@@H](C)Nc2ccc(Cl)nc2C(=O)NS(C)(=O)=O)c2nc(N3CCC[C@@H](c4cnc(C)c(C#N)c4)C3)n(C)c(=O)c2c1 (relative stereo) [Compound 614, 6-chloro-3-(((R)-1-(2-((R*)-3-(5-cyano-6-methylpyridin-3-yl)piperidin-1-yl)-3,6-dimethyl-4-oxo-3,4-dihydroquinazolin-8-yl)ethyl)amino)-N-(methylsulfonyl) picolinamide]
8 | – | – | > 6.60 | ≤ 5.30 | Cc1cc([C@@H](C)Nc2ccc(Cl)nc2C(=O)NS(C)(=O)=O)c2nc(N3CC[C@@H](Nc4ncccn4)C3)n(C)c(=O)c2c1 [Compound 541, 6-chloro-3-(((R)-1-(3,6-dimethyl-4-oxo-2-((R)-3-(pyrimidin-2-ylamino)pyrrolidin-1-yl)-3,4-dihydroquinazolin-8-yl)ethyl)amino)-N-(methylsulfonyl) picolinamide]
